Test results as given in patent US20250281479A1, “TREATMENT OF CAVERNOUS ANGIOMAS WITH A 4-SUBSTITUTED PIPERIDINE DERIVATIVE” (Neurelis, Inc., priority 2024, published 2025).

What was measured:
[1] = nonclinical exposure to NRL-2017 versus NRL-1049 in monkeys; type: in vivo
Protocol: (§1) Exposure to NRL-2017 was similar or greater (up to 5-fold) than that to NRL-1049 in rats when dosed once a day (QD). In monkeys, exposure to NRL-2017 was also greater (up to 33-fold) than that to NRL-1049. When rats were dosed twice a day (BID) for 14 days, there was a decrease in formation of NRL-2017 with exposure to NRL-2017 lower than that of NRL-1049 (ratio as low as 0.06). […] NRL-1049 bound to human serum albumin and human alpha1-acid glycoprotein. […] There was also inhibition of P-glycoprotein (P-gp) (only CACO-2 cells), organic anion transporting polypeptides (OATP) OATP1B1, OATP1B3 and OAT3 (IC50, >100 μM), but no effect on P-gp (MDCK2 cells), breast cancer resistance protein (BCRP), bile salt export pump (BSEP), or MATE2-K. NRL-1049 is a substrate for P-gp, not BCRP. […] This conclusion will be revisited when human pharmacokinetic (PK) data becomes available.

[2] = tissue distribution and excretion; type: in vivo
Protocol: as §1

ROCK 2 = ROCK 2 (Homo sapiens, UniProt O75116); test: ROCK 2 inhibition by metabolites; type: biochemical
Chain of ROCK 2 (O75116 whole entry, species assumed): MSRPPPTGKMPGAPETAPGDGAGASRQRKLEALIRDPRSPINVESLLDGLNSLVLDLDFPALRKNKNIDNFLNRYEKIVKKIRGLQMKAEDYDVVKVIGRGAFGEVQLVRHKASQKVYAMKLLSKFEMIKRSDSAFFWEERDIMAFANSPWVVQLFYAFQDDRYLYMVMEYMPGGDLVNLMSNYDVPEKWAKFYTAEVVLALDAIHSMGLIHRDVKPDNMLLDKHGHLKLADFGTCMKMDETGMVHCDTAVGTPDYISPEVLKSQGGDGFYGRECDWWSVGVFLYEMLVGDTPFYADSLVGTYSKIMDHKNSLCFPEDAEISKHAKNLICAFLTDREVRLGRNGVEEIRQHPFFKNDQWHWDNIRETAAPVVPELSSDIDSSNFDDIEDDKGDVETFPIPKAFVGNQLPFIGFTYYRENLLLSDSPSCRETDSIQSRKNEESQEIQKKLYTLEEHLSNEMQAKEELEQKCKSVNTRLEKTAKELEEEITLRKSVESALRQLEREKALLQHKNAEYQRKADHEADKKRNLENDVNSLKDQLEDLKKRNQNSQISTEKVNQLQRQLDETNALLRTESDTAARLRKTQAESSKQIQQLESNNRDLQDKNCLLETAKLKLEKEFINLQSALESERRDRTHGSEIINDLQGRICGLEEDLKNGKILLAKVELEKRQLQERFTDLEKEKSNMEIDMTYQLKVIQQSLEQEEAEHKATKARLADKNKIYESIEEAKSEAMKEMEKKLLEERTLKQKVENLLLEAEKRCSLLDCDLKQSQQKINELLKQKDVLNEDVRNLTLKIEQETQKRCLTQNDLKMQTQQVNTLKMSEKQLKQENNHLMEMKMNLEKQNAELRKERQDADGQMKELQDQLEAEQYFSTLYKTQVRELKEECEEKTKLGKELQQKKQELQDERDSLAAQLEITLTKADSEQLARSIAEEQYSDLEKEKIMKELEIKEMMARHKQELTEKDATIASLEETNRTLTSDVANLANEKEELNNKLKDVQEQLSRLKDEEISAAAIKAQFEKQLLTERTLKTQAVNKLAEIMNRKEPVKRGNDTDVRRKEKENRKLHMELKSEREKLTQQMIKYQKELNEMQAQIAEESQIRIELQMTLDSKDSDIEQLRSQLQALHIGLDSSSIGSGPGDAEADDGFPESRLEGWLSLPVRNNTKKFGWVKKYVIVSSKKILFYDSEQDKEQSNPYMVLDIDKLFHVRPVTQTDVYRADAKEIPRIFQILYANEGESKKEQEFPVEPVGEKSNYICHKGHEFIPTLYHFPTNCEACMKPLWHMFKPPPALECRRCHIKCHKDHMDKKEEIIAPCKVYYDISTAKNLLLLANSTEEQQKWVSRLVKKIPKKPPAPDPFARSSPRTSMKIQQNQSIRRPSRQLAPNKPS

[3] = nonclinical pharmacokinetics after a single oral dose; type: in vivo, mice, rats, and monkeys
Protocol: as §1

[4] = nonclinical exposure to NRL-2017 versus NRL-1049 in rats; type: in vivo
Protocol: as §1

[5] = first-in-human single ascending dose and food-effect study, plasma pharmacokinetics; type: in vivo; details: for Tmax: po; for Thalf: mean
From the text: This was a first-in-human, single center, randomized, double-blind, placebo-controlled, single ascending dose (SAD) study, including a food-effect assessment, in healthy male and female subjects. Up to 44 subjects were included in the study.
The study consisted of 4 sequential cohorts of 8 subjects each (6 active and 2 placebo), randomly assigned to receive a single oral dose of NRL-1049 or matching-placebo under fasting state on Day 1 (See Table 2). In each cohort, a sentinel group of 2 subjects (1 active and 1 placebo) were dosed at least 24 hours prior to enrolling the remaining subjects of the cohort, contingent on the safety profile observed during sentinel dosing, as defined by medical judgment.
Subjects were admitted to the clinical research unit (CRU) on Day −1. On Day 1, following an overnight fast, subjects received a single oral dose of their assigned study treatment. Safety, PK, and exploratory biomarker assessments were performed prior to dosing and at assigned time points during study confinement. Subjects were permitted to leave the CRU following the completion of the 48-hour PK postdose sampling and safety assessments. A safety follow-up phone call was performed on Day 8 (±1 day).
Furthermore, a food-effect assessment was integrated into Cohort 3, in which a single oral 150 mg dose of NRL-1049 or placebo was administered to 12 subjects (10 active and 2 placebo) under fed state in Period 2 (refer to schedule of food-effect Cohort 3 in Table 3). After completion of Period 1 and a washout period of at least 14 days, Cohort 3 subjects repeated the screening procedures to ensure they still met the inclusion and exclusion criteria prior to readmission to the CRU for Period 2. Subjects dosed in Period 1 and who returned for Period 2 (a maximum of 6 active and 2 placebo) were administered the same single oral dose in Period 2 under fed state. In addition, at least 4 new subjects were enrolled in Period 2 only, in order to dose a total of 12 subjects (10 active and 2 placebo), in a 1:1 ratio of male to female. If a subject dosed in Period 1 was unable to return for Period 2, a new subject was enrolled to ensure dosing a total of 12 subjects in Period 2. Newly enrolled subjects only received the study drug in the fed state, and as such were not required to undergo Period 1 activities. There was no sentinel approach in Period 2.
Study drugs (NRL-1049 or placebo) were administered in the morning. The date and time of each dose was recorded. For each subject, all scheduled postdose activities and assessments were performed relative to the time of study drug administration. An oral dose of the assigned formulation was administered to subjects with approximately 240 mL of water at ambient temperature. The capsule(s) were swallowed whole and not chewed or broken. Food and fluid intake other than water were controlled for each confinement period and all subjects. In Cohorts 1, 2, 3 (Period 1), and 4, water was permitted as needed except from 1 hour predose until 1 hour after dosing. In Period 2 of Cohort 3, water was permitted as needed throughout the confinement period. For cohorts under fasting state, subjects were required to fast (abstain from food) for at least 10 hours prior to dosing and for at least 4 hours following dosing. In Period 2 of the food-effect cohort only, following an overnight fast of at least 10 hours, subjects received a standardized high-fat, high-calorie meal 30 minutes prior to study drug administration. An example meal would consist of 2 eggs fried in butter, 2 strips of bacon, 2 slices of toast with butter, 4 ounces of hash brown potatoes, and 8 ounces of whole milk. […] Subjects had to eat the total content of this meal in 30 minutes or less. For all cohorts, a standardized lunch was served at least 4 hours after dosing. A supper, light snack, and other meals were served at appropriate times thereafter, but not until after 9 hours postdose. […]

[6] = 150 mg NRL-1049, fed compared to fasting state
[7] = 25 to 250 mg NRL-1049, fasting conditions

Question: Which “exposure to NRL-2017 relative to NRL-1049” value [1] does the source give for C[C@@H](N)C1CCN(S(=O)(=O)c2cccc3c(O)nccc23)CC1 [NRL-2017, 1-hydroxy NRL-1049] here?
Answer: up to 33 fold

Question: And the tissue distribution ([2]; brain, aorta, inferior vena cava)?
Answer: distributed to brain and vascular tissue

Question: And the excretion ([2]; in vivo)?
Answer: excreted in urine

Question: What about the “ROCK 2 inhibition” value (ROCK 2) of the same compound?
Answer: potent ROCK 2 inhibitor

Question: What about the exposure versus dose ([3]; in vivo) of the same compound?
Answer: greater than dose-proportional

Question: What about the half-life ([3]; mouse, rat, monkey, plasma, single oral dose of NRL-1049, range over mice, rats, and monkeys, read-out: elimination phase half-life (t½)) of the same compound?
Answer: 0.58 to 5.7 h

Question: And the Tmax ([3]; mouse, rat, monkey, plasma, single oral dose of NRL-1049, range over mice, rats, and monkeys, read-out: time to maximum plasma concentration (Tmax))?
Answer: 0.5 to 4 h

Question: And the “exposure to NRL-2017 relative to NRL-1049” value ([4]; rats dosed once a day (QD), similar or greater)?
Answer: up to 5 fold

Question: And the “exposure ratio NRL-2017 to NRL-1049” value ([4]; rats dosed twice a day (BID) for 14 days)?
Answer: ≥ 0.06

Question: What about the “food effect on mean AUC0-T and AUCinf” value [5, 6] of the same compound?
Answer: remained consistent

Question: What about the “food effect on mean Cmax” value [5, 6] of the same compound?
Answer: decreased

Question: And the “food effect on mean elimination half-life” value [5, 6]?
Answer: remained consistent

Question: And the “manner of increase of AUC0-T with dose” value [5, 7]?
Answer: greater than dose proportional

Question: And the “manner of increase of AUC0-Tmax with dose” value [5, 7]?
Answer: dose proportional

Question: What about the “manner of increase of AUCinf with dose” value [5, 7] of the same compound?
Answer: greater than dose proportional

Question: What about the “manner of increase of Cmax with dose” value [5, 7] of the same compound?
Answer: greater than dose proportional

Question: And the “time up to which mean concentrations were quantifiable” value ([5]; all dose levels of 25 to 250 mg NRL-1049 fasting and 150 mg fed)?
Answer: up to 48 hours

Question: What about the AUC(0-t) ([5]; both sexes, human, plasma, oral, range over dose range 25 to 250 mg NRL-1049, fasting state, read-out: mean AUC0-T) of the same compound?
Answer: 478 to 6690 ng·h/mL

Question: And the AUC ([5]; both sexes, human, plasma, oral, range over dose range 25 to 250 mg NRL-1049, fasting state, read-out: mean AUC0-Tmax)?
Answer: 35.6 to 457 ng·h/mL

Question: And the AUC(0-inf) ([5]; both sexes, human, plasma, oral, range over dose range 25 to 250 mg NRL-1049, fasting state, read-out: mean AUCinf)?
Answer: 546 to 7040 ng·h/mL

Question: And the Cmax ([5]; both sexes, human, plasma, oral, range over dose range 25 to 250 mg NRL-1049, fasting state, read-out: mean Cmax)?
Answer: 54.2 to 1520 ng/mL

Question: And the half-life ([5]; both sexes, human, plasma, oral, range over the dose groups 25 to 250 mg NRL-1049, fasting state, read-out: mean elimination half-life)?
Answer: 12.3 to 17.3 h

Question: And the Tmax ([5]; both sexes, human, plasma, 150 mg, plasma metabolite NRL-2017, median, 150 mg NRL-1049 single oral, Fasted, Cohort 3, N = 6, read-out: Tmax)?
Answer: 1.13 h

Question: And the Tmax ([5]; both sexes, human, plasma, 150 mg, plasma metabolite NRL-2017, median, 150 mg NRL-1049 single oral, Fed, Cohort 3, N = 10, read-out: Tmax)?
Answer: 1.75 h

Question: What about the Tmax ([5]; both sexes, human, plasma, range over single oral doses of 25 to 250 mg NRL-1049, fasting state, read-out: median time to maximum observed plasma concentration (Tmax)) of the same compound?
Answer: 0.88 to 1.63 h

Question: And the Thalf ([5]; plasma metabolite NRL-2017, 150 mg NRL-1049 single oral, Fasted, Cohort 3, N = 6)?
Answer: 12.28 h

Question: What about the Thalf ([5]; plasma metabolite NRL-2017, 150 mg NRL-1049 single oral, Fed, Cohort 3, N = 10) of the same compound?
Answer: 12.37 h
